From ChEMBL document CHEMBL2057151, “Synthesis and structure-activity relationships of pyrido[3,2-b]pyrazin-3(4H)-ones and pteridin-7(8H)-ones as corticotropin-releasing factor-1 receptor antagonists” (Bioorg Med Chem Lett, 2012)

Legend:
[1] = target: T1, Corticotropin-releasing factor receptor 1 (Rattus norvegicus, UniProt P35353); assay: Antagonist activity at rat CFR1R; format: functional
T1 sequence (P35353 whole entry): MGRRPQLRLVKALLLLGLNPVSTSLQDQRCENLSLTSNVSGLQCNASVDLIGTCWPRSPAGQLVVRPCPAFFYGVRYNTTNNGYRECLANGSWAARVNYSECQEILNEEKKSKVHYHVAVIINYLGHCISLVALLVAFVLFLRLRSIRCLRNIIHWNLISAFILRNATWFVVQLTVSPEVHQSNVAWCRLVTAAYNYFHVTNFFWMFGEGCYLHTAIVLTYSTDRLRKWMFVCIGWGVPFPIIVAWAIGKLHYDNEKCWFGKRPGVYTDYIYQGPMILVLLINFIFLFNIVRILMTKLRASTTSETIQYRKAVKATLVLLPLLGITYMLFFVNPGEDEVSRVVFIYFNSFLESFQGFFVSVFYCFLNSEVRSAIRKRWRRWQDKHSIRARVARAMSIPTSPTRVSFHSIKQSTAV

[2] = Fraction unbound in rat plasma; format: ADME, cell-free
[3] = Clearance in rat at 0.5 mg/kg, iv and 1.5 mg/kg, po; format: ADME, organism-based; conditions: in vivo
[4] = Half life in rat at 0.5 mg/kg, iv; format: ADME, organism-based; parameters: dose 0.5 mg/kg, route intravenous; conditions: in vivo
[5] = Volume of distribution at steady state in rat at 0.5 mg/kg, iv and 1.5 mg/kg, po; format: ADME, organism-based; conditions: in vivo, read-out: Vdss
[6] = tested on: Rattus norvegicus; assay: AUC in rat at 1.5 mg/kg, po; format: ADME, organism-based, Plasma; parameters: dose 1.5 mg/kg, route oral; conditions: in vivo

CCC(C1CC1)n1c(=O)c(C)nc2c(-c3cc(C)c(Cl)cc3OC)ccnc21 (racemic)
IC50 [1]: 1.1 nM

CC[C@@H](COC)n1c(=O)c(C)nc2c(-c3ccc(Cl)cc3Cl)ccnc21
IC50 [1]: 74 nM

CC[C@H](C1CC1)n1c(=O)c(C)nc2c(-c3cc(C)c(OC)cc3C)ccnc21
IC50 [1]: 130 nM

CCC(COC)n1c(=O)c(C)nc2c(-c3cc(F)c(OC)cc3Cl)ccnc21 (stereo not given)
IC50 [1]: 2.1 nM
fraction unbound [2]: 0.03

CCC(C1CC1)n1c(=O)c(C)nc2c(-c3cc(F)c(N(C)C)cc3Cl)ccnc21 (racemic)
IC50 [1]: 0.82 nM
fraction unbound [2]: < 0.002

CC[C@@H](C1CC1)n1c(=O)c(C)nc2c(-c3ccc(Cl)cc3Cl)ccnc21
IC50 [1]: 7.4 nM
fraction unbound [2]: 0.002

CC[C@H](C1CC1)n1c(=O)c(C)nc2c(-c3ccc(OC)nc3C)ccnc21
IC50 [1]: 76 nM

CC[C@H](COC)n1c(=O)c(C)nc2c(-c3ccc(Cl)cc3Cl)ncnc21
IC50 [1]: 97 nM
fraction unbound [2]: 0.022

COc1ccc(-c2ccnc3c2nc(C)c(=O)n3C(C2CC2)C2CC2)c(C)c1
IC50 [1]: 3 nM
fraction unbound [2]: 0.03

CCC(C1CC1)n1c(=O)c(C)nc2c(-c3cc(Cl)c(OC)cc3OC)ccnc21 (racemic)
IC50 [1]: 3.4 nM

CCCC(C1CC1)n1c(=O)c(C)nc2c(-c3ccc(Cl)cc3Cl)ccnc21 (stereo not given)
IC50 [1]: 4.3 nM

CCCC(C)n1c(=O)c(C)nc2c(-c3ccc(Cl)cc3Cl)ccnc21 (stereo not given)
IC50 [1]: 62 nM

CC[C@H](C1CC1)n1c(=O)c(C)nc2c(-c3cc(C)c(OC)nc3C)ccnc21
IC50 [1]: 15 nM

CCOc1cc(Cl)c(-c2ccnc3c2nc(C)c(=O)n3C(CC)C2CC2)cc1C (racemic)
IC50 [1]: 2 nM

CC[C@@H](C1CC1)n1c(=O)c(C)nc2c(-c3ccc(OC)cc3Cl)ccnc21
IC50 [1]: 4 nM

COCC(C)n1c(=O)c(C)nc2c(-c3ccc(Cl)cc3Cl)ccnc21 (stereo not given)
IC50 [1]: 63 nM

COc1ccc(-c2ncnc3c2nc(C)c(=O)n3C(C2CC2)C2CC2)c(C)c1
IC50 [1]: 37 nM
fraction unbound [2]: 0.014

CC[C@@H](C1CC1)n1c(=O)c(C)nc2c(-c3ccc(OC(F)F)cc3Cl)ccnc21
IC50 [1]: 7.3 nM

CC[C@@H](C1CC1)n1c(=O)c(C)nc2c(-c3ccc(C(F)(F)F)cc3Cl)ccnc21
IC50 [1]: 21 nM

CC[C@H](C1CC1)n1c(=O)c(C)nc2c(-c3cc(F)c(OC)cc3Cl)ccnc21
IC50 [1]: 1.7 nM

CCC(C1CC1)n1c(=O)c(C)nc2c(-c3cc(C#N)c(C)cc3Cl)ccnc21 (stereo not given)
IC50 [1]: 4.8 nM

CCC(COC)n1c(=O)c(C)nc2c(-c3cc(F)c(OC)cc3Cl)ncnc21 (stereo not given)
IC50 [1]: 16 nM
fraction unbound [2]: 0.014

CC[C@H](COC)n1c(=O)c(C)nc2c(-c3ccc(Cl)cc3Cl)nccc21
IC50 [1]: 150 nM

Cc1nc2c(-c3ccc(Cl)cc3Cl)ccnc2n(C(C)C(C)C)c1=O (stereo not given)
IC50 [1]: 380 nM

COCC(C1CC1)n1c(=O)c(C)nc2c(-c3cc(F)c(OC)cc3Cl)ncnc21 (stereo not given)
clearance [3]: 33.7 mL/min/kg
IC50 [1]: 7.5 nM
half-life [4]: 2 h
Vd [5]: 2.05 L/kg
AUC [6]: 0.3 µM·h
fraction unbound [2]: 0.028

CCC(C1CC1)n1c(=O)c(C)nc2c(-c3cc(Cl)c(OC(F)F)cc3C)ncnc21 (stereo not given)
IC50 [1]: 38 nM
fraction unbound [2]: 0.004

COCC(C1CC1)n1c(=O)c(C)nc2c(-c3cc(F)c(OC)cc3Cl)ccnc21 (stereo not given)
IC50 [1]: 1.5 nM
fraction unbound [2]: < 0.002

CC[C@H](COC)n1c(=O)c(C)nc2c(-c3ccc(Cl)cc3Cl)ccnc21
IC50 [1]: 4 nM
fraction unbound [2]: 0.004

CC[C@H](C1CC1)n1c(=O)c(C)nc2c(-c3cc(Cl)c(OC)cc3C)ccnc21
IC50 [1]: 4.5 nM

CCC(C1CC1)n1c(=O)c(C)nc2c(-c3cc(F)c(OC)cc3F)ccnc21 (racemic)
IC50 [1]: 52 nM

CCC(C1CC1)n1c(=O)c(C)nc2c(-c3cc(Cl)c(OC(F)F)cc3C)ccnc21 (racemic)
IC50 [1]: 9.7 nM
fraction unbound [2]: 0.003

CCC(C1CC1)n1c(=O)c(C)nc2c(-c3cc(C)c(OC)cc3Cl)ccnc21 (racemic)
IC50 [1]: 0.68 nM
fraction unbound [2]: < 0.002

CCC(C1CC1)n1c(=O)c(C)nc2c(-c3cc(C)c(C)cc3C)ccnc21 (racemic)
IC50 [1]: 5.2 nM

CC[C@H](C1CC1)n1c(=O)c(C)nc2c(-c3ccc(OC)cc3C)ccnc21
IC50 [1]: 11 nM

CC[C@@H](C1CC1)n1c(=O)c(C)nc2c(-c3ccc(Cl)cc3Cl)nccc21
IC50 [1]: 55 nM

CCC(C1CC1)n1c(=O)c(C)nc2c(-c3cc(C)c(C)c(C)c3C)ccnc21 (racemic)
IC50 [1]: 340 nM

CC[C@H](C1CC1)n1c(=O)c(C)nc2c(-c3ccc(Cl)cc3Cl)ccnc21
IC50 [1]: 8.2 nM

CC[C@H](C1CC1)n1c(=O)c(C)nc2c(-c3ccc(OC)cc3Cl)ccnc21
IC50 [1]: 4.5 nM

CCC(C1CC1)n1c(=O)c(C)nc2c(-c3ccc(C)cc3C)ccnc21 (racemic)
IC50 [1]: 8.8 nM

CCC(C1CC1)n1c(=O)c(C)nc2c(-c3cc(C)c(OC(C)C)cc3Cl)ccnc21 (racemic)
IC50 [1]: 15 nM

CC[C@H](C1CC1)n1c(=O)c(C)nc2c(-c3cc(F)c(OC)cc3C)ccnc21
IC50 [1]: 9.4 nM

CC[C@@H](C1CC1)n1c(=O)c(C)nc2c(-c3ccc(Cl)cc3Cl)ncnc21
IC50 [1]: 24 nM
fraction unbound [2]: 0.004

Cc1nc2c(-c3ccc(Cl)cc3Cl)ccnc2n(CC(C)C)c1=O
IC50 [1]: 3500 nM

CCC(COC)n1c(=O)c(C)nc2c(-c3cc(Cl)c(OC)cc3C)ccnc21 (stereo not given)
clearance [3]: 9.5 mL/min/kg
half-life [4]: 5.8 h
Vd [5]: 1.8 L/kg
AUC [6]: 8.5 µM·h
